Here are results for four molecules from PMC11343458, “Extracellular proteolysis of tandemly duplicated pheromone propeptides affords additional complexity to bacterial quorum sensing” (PLOS Biology, 2024).

No end group written: not given here.

The subject of test [1] is Rap^3T. Description: Microscale thermophoresis (MST) of peptide binding to Rap^3T. Details: species or system Bacillus phage phi3T. The note with it: MST. The procedure: Rap^3T was fluorescently labeled with NT-647 amine reactive dye from the Monolith NT Protein Labeling kit RED-NHS (NanoTemper Technologies) according to the manufacturer’s instructions. Briefly, 100 μm solution of the protein was mixed with 3× dye solution, incubated 30 min in dark, and then purified by gravity in a 5 ml size exclusion column equilibrated with dialysis buffer (20 mM Tris-HCl (pH 8), 250 mM NaCl) supplemented with 0.1% pluronic and 5% glycerol to remove free dye. Rap^105 was fluorescently labeled using His-Tag Labeling Kit RED-tris-NTA 2nd Generation. Briefly, 500 nM of protein was mixed with 5 μm dye in PBS supplemented with 0,02% of tween incubated in dark at room temperature for 30 min and centrifuged at 10,000 g for 10 min at 4°C, transferred to a fresh tube, and used in the assays immediately. Labeled proteins were used at a final optimized concentration of 20 nM in the case of Rap^3T and 250 nM in the case of Rap^105. For the measurements of EC50, a 16-point 2-fold serial dilution (ranged from 2 to 3 × 10^−5 μm) of the peptides were prepared in presence of the corresponding labeled Rap protein. After 15-min incubation at room temperature, samples were filled into standard Capillaries (K005, NanoTemper Technologies) and MST measurements were performed on a Monolith NT.115 (NanoTemper Technologies) in RED channel using 60% to 75% of LED excitation power and medium or high MST power for Rap^3T or Rap^105, respectively. […] Data analyses were performed with M.O. Affinity Analysis software (NanoTermper Technologies) applying cooperative (Hill coefficient) and non-cooperative (Kd model) models, with the first one yielding better fitting values.
On the technique in general: Microscale thermophoresis detects binding through changes in fluorescence in a small temperature gradient.

Test [2] concerns WprA and Bpr proteases (B. subtilis supernatants). Briefly: Kinetic (time course) maturation assay of Imat1^3T in 168, WprA and Bpr KO supernatants. The format is biochemical, Bacillus subtilis. The note with it: samples inactivated at different times, Rap^3T thermal shift. The source says:
Fig 2 Propeptide maturation of Phr^3T and Phr^105 propeptides. Thermal shift assay experiments for maturation effect of supernatants from B. subtilis 168 and WB800 strains in immature version of the pheromones codified in Phr^3T (a) and Phr^105 (e), mean values of triplicates are plotted, 3 standard deviations from negative control maturation (WB800 supernatant) are highlighted in red. Error bars mark from the minimum to maximum values observed in the triplicates. Thermal shift assays with supernatants from B. subtilis 168, WB800, and individual protease mutant strains in maturation of peptides Imat2^3T(b), Imat1^105 (f), Imat2^105 (g) and Imat3^105 (h), mean values of triplicates are plotted, 3 standard deviations from negative control maturation (WB800 supernatant) are highlighted in red. Error bars mark from the minimum to maximum values observed in the triplicates. (c) Thermal shift slopes of the effect of individual mutations of 8 protease genes on Imat1^3T peptide maturation. (d) Kinetic assays comparing Imat1^3T peptide maturation in 168 supernatant and supernatants of WprA and Bpr protease KO mutants, relative maturation was calculated as fluorescence of the peak corresponding with the mature pheromone divided by the fluorescence of the peak corresponding with the non-maturated pheromone. […]

The subject of test [3] is extracellular proteases in supernatants of B. subtilis 168, WB800 and individual protease mutants. Description: Peptide maturation assay with B. subtilis supernatants, read by Rap^3T thermal shift. Type of test: biochemical, Bacillus subtilis. The note with it: 100 μm peptide. The protocol:
Overnight cultures of either B. subtilis strains 168, WB800, Δmpr, Δbpr, ΔaprE, Δepr, ΔwprA, Δvpr, ΔnprB, ΔnprE in GM1 media were diluted 1:20 into GM1 media and incubated at 37°C at 250 rpm. […] After incubation, reaction was stopped by incubation at 95°C for 5 min and sample was kept and used in Thermal Shift Assays (see before). In the kinetic assays, samples were inactivated at different times by incubation at 95°C for 5 min. Experiments were validated by experimental triplicates of 3 biological replicates.
The thermal shift assay was conducted in a CFX Opus Real-Time PCR system (Biorad). Samples of 20 μl containing 20× Sypro Orange (Sigma-Aldrich) and 50 μm of protein in a 20 mM Tris (pH 8) and 250 mM NaCl buffer or filtered supernatant in peptide maturation assays (see below) were loaded in 96-well PCR plates. In the cases where peptide interaction was analyzed, synthetic peptides at a final concentration of 100 μm were added to the assays. Samples were heated from 20 to 85°C in steps of 1 degree. Fluorescent intensity was plotted versus temperature and integrated with either CFX Opus Real-Time PCR automate model or GraphPad Prism software using a Boltzmann model to calculate melting temperatures.

In test [4] the test system is Rap^BA3. The note with it: Rap^BA3 overexpression; cited from earlier work.
The target of test [5] is Rap^3T (Bacillus phage phi3T). Briefly: SEC-MALS; Rap^3T at 1 mg/ml, 50 mM Hepes (pH 7), 150 mM NaCl; apo, or preincubated with 100 μm pheromone (SRGHTS or RRGHTA) with 10 μm pheromone in the mobile phase. Background: SEC sorts molecules by how far they enter the pores of the column.
Test [6] deals with Rap^105 (Bacillus phage phi105). Briefly: thermal shift assay; Sypro Orange, 50 μm protein, 100 μm synthetic peptide, 20 mM Tris (pH 8), 250 mM NaCl (or filtered supernatant in the maturation assays), heated from 20 to 85°C.
Test [7] addresses T1, Rap^105 labelled through its His tag (MST) (Bacillus phage phi105).
T1 chain: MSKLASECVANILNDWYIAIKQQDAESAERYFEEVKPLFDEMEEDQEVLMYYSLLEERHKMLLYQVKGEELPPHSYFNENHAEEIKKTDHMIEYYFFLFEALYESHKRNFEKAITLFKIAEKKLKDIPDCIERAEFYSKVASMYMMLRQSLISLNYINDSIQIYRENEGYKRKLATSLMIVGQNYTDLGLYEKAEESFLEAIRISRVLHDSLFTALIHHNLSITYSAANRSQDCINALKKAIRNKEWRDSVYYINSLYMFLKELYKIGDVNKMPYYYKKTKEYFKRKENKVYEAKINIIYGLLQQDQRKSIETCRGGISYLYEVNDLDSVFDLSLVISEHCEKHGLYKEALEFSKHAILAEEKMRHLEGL
Briefly: MST.

In test [8] the target is Rap^105 labelled through its His tag (MST) (Bacillus phage phi105). Briefly: MST; Rap^105 labelled with RED-tris-NTA on the His tag at 250 nM; peptide in a 16-point 2-fold dilution from 2 to 3 x 10^-5 μm; PBS with 0,02% tween; 15 min at room temperature; Hill model.

With RRGHTASIGFTDGHSYDIA [Imat1^3T], the “binding to Rap^3T (MST), in words” value in test [1] is listed as “weak affinity”. For the same molecule, in test [2], the “time course maturation with Δbpr supernatant” value was “fully mature the peptide at longer incubation times” and the “time course maturation with ΔwprA supernatant” value was “minimal maturation levels even at these times”. For the same molecule, the “maturation by B. subtilis 168 supernatant (Rap^3T thermal shift)” value in test [3] (1 h room temperature in filtered supernatant (GM1, OD600 0.5), stopped 95°C 5 min) was “effectively processed”. Besides, the “maturation by supernatants of individual protease mutants of B. subtilis 168 (Rap^3T thermal shift)” value in test [3] (1 h room temperature, 8 single protease mutants) is “the supernatants from the ΔwprA and Δbpr mutants showed 2 slopes”. Also, in test [3] (1 h room temperature, strain mutant in nprE, nprB, aprE, epr, bpr, mpr, vpr, wrpA), the “maturation by B. subtilis WB800 (protease-deficient) supernatant (Rap^3T thermal shift)” value is “no increase in Rap^3T stabilization was observed”.

Consider “RRGQT [peptide that relieves Rap^BA3 repression in previous work]”, for which the “relief of Rap^BA3 repression of sporulation and competence” value in test [4] is “repression is relieved”.

Turning to Rap^3T (receptor), the stoichiometry N – broadly, the number of molecules, sites or subunits per partner or assembly – in test [5] is 2.

On to ERPVGT, for which the stabilization of the denaturation temperature in test [6] was determined as 9 degrees. Further, the EC50 (as a rule, the concentration needed to bring the measured effect to its halfway point) is 38.2 nM in test [7] and 34 nM in test [8].
